Results published in patent US9579401B2, “Staining composition” (Medical Technology Transfer Holding B.V., priority 2010, dated 2017).

Test: Stability of trypan blue and brilliant blue G in polymer solutions, 70° C. for 7 days, absorbance spectra
Conditions: 0.025% (w/v)

CCOc1ccc(Nc2ccc(/C(=C3C=C/C(=[N+](/CC)Cc4cccc(S(=O)(=O)[O-])c4)C=C/3C)c3ccc(N(CC)Cc4cccc(S(=O)(=O)[O-])c4)cc3C)cc2)cc1.[Na+] [brilliant blue G]
stability of brilliant blue G (difference absorbance spectra) (4% (w/v) PEG Mw≈3350): excellent solvent
stability of brilliant blue G (difference absorbance spectra) (PVA Mw≈13,000-23,000): much less stable
